Measured values published in ChEMBL document CHEMBL1201862, “PubChem BioAssay data set” (2004).
Active and inactive are the calls of the source.

Columns and labels:
[1] = biological target: Beta-2 adrenergic receptor (Homo sapiens, UniProt P07550); test: ADRB2 activation measured by internalization – cell-based, FAP fluorogen, flow cytometry, cherry pick 1, dose response (AID 588763); assay type: functional
[2] = biological target: T1, Acyl-homoserine lactone acylase PvdQ (Pseudomonas aeruginosa (strain LESB58), UniProt Q9I194); test: PvdQ acylase enzyme activity blockers – biochemical, fluorescence, plate reader and imaging, cherry-picks, dose response (AID 493231)
T1 sequence (Q9I194 whole entry): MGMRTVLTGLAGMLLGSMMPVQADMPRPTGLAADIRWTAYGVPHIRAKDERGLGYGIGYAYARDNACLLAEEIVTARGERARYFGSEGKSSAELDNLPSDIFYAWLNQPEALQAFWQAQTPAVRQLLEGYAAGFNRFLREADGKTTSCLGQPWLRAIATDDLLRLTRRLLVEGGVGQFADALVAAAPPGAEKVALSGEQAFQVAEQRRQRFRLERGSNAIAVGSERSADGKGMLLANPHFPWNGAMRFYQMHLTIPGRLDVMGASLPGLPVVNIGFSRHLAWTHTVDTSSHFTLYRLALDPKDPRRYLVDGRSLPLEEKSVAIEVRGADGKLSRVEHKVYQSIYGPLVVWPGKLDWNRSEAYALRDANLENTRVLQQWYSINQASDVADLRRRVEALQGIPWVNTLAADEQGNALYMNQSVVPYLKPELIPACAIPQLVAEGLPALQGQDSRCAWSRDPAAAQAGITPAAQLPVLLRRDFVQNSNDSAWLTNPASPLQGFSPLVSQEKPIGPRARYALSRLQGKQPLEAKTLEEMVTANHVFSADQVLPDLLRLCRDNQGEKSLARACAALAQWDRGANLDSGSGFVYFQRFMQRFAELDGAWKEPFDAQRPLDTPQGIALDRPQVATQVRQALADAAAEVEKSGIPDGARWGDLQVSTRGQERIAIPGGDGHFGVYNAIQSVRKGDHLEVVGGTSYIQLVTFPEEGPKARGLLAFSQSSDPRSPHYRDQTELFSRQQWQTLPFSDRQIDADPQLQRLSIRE

HeLa = test: toxicity to human HeLa cells – cell-based, 48 h, plate reader, cherry-picks, cytotoxicity control, dose response (AID 504942); assay type: functional

Chain of Beta-2 adrenergic receptor (P07550 whole entry): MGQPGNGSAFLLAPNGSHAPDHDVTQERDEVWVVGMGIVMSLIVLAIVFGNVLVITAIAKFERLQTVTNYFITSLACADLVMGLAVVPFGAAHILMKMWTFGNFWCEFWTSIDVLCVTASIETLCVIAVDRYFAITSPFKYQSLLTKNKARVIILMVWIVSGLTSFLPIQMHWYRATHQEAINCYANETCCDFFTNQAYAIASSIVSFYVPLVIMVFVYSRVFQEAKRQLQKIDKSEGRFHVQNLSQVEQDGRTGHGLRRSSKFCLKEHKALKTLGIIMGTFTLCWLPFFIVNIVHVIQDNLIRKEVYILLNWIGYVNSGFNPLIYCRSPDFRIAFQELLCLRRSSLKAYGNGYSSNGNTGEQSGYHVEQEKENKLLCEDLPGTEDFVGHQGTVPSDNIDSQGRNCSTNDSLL

| EC50 [1] | SMILES | AC50 [2] | AC50 (HeLa) |
| --- | --- | --- | --- |
| 936 nM (active) | CCc1ccc(CN2CCC(Oc3ccc(C(=O)N4CCCC4)cc3)CC2)cc1 |  |  |
|  | Cc1cc(NC(=O)Nc2ccccc2[N+](=O)[O-])no1 | 2.02 µM (active) | > 380 µM (inactive) |
